This passage reports IC50 results from patent US10092570B2 (Incyte Corporation, priority 2011, dated 2018).

For orientation: IC50 means the concentration needed to halve the response being measured.

The structures appear in SMILES notation. Counter-ions that a name gives are not always drawn.

This experiment addresses PI3Kδ (p110δ/p85α) (Homo sapiens (Human), UniProt O00329). Nature of the experiment: Example A3: PI3Kδ scintillation proximity assay. The settings on record: scintillation proximity assay, 20 μM ATP, 4 nM PI3Kδ; read-out: PI3Kδ SPA IC50. It is filed as biochemical. On the procedure:
[γ-^33P]ATP (10 mCi/mL) was purchased from Perkin-Elmer (Waltham, Mass.). […] PI3Kδ (p110δ/p85α) was purchased from Millipore (Bedford, Mass.). ATP, MgCl2, DTT, EDTA, MOPS and CHAPS were purchased from Sigma-Aldrich (St. Louis, Mo.). Wheat Germ Agglutinin (WGA) YSi SPA Scintillation Beads was purchased from GE healthcare life sciences (Piscataway, N.J.).
The kinase reaction was conducted in polystyrene 384-well matrix white plate from Thermo Fisher Scientific in a final volume of 25 μL. Inhibitors were first diluted serially in DMSO and added to the plate wells before the addition of other reaction components. The final concentration of DMSO in the assay was 0.5%. The PI3K assays were carried out at room temperature in 20 mM MOPS, pH 6.7, 10 mM MgCl2, 5 mM DTT and CHAPS 0.03%. Reactions were initiated by the addition of ATP, the final reaction mixture consisted of 20 μM PIP2, 20 μM ATP, 0.2 μCi [γ-^33P] ATP, 4 nM PI3Kδ. […] 25 mM EDTA, 400 μM ATP. The final concentration of SPA beads was 1.0 mg/mL. After the plate sealing, plates were shaken overnight at room temperature and centrifuged at 1800 rpm for 10 minutes, the radioactivity of the product was determined by scintillation counting on Topcount (Perkin-Elmer). IC50 determination was performed by fitting the curve of percent control activity versus the log of the inhibitor concentration using the GraphPad Prism 3.0 software.

Sequence of PI3Kδ (p110δ/p85α) (O00329 whole entry): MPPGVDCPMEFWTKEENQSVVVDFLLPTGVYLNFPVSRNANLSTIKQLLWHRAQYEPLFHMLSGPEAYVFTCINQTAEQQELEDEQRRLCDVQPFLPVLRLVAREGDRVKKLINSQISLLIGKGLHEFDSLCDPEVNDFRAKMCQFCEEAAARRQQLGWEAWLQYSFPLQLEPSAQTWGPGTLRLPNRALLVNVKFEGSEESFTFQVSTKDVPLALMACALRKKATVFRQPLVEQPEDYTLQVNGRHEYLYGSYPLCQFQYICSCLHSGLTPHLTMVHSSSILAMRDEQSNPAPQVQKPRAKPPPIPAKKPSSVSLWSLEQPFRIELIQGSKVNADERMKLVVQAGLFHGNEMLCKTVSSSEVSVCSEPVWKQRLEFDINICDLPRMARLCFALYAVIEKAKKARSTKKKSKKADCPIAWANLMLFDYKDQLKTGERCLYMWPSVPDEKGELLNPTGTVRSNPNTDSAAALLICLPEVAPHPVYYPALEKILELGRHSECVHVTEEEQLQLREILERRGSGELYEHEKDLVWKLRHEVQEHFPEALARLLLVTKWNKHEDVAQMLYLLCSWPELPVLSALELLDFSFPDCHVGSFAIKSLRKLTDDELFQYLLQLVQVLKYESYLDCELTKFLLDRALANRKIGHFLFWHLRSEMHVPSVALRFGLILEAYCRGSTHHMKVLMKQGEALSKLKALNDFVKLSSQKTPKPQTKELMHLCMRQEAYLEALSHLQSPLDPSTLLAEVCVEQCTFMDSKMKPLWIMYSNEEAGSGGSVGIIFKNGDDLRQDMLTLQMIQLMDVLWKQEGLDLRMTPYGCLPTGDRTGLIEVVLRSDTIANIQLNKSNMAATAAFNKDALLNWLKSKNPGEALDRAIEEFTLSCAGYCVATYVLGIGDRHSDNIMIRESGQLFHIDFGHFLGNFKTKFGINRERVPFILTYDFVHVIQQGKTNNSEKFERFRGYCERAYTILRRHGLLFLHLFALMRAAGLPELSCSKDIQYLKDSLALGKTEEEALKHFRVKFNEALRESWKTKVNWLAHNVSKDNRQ
Sequence of PI3Kδ (p110δ/p85α) (P27986 whole entry partner): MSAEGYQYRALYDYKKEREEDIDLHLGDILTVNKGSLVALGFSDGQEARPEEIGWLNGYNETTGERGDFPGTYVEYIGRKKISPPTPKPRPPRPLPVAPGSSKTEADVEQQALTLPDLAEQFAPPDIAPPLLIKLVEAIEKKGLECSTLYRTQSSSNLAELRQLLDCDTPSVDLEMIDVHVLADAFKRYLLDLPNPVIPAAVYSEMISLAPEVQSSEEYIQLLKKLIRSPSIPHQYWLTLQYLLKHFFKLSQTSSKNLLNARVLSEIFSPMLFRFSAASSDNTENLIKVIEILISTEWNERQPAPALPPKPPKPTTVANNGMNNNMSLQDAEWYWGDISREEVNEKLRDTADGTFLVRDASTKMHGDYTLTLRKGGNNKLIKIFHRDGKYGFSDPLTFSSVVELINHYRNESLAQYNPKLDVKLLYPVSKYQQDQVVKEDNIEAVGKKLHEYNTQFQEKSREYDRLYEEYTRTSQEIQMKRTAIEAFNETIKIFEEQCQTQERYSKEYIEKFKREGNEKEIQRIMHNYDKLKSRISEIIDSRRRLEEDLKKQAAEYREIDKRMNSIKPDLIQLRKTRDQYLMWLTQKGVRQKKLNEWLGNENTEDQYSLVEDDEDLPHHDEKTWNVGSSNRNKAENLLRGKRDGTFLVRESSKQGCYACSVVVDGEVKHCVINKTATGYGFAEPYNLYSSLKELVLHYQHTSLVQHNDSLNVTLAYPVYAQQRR

As for `CNC(=O)[C@@H](C)N1CC(c2c(C)c(Cl)cc(C(C)n3nc(C)c4c(N)ncnc43)c2OC)C1` (stereo partly drawn) [Example 110, (2R)-2-(3-{3-[1-(4-Amino-3-methyl-1H-pyrazolo[3,4-d]pyrimidin-1-yl)ethyl]-5-chloro-2-methoxy-6-methylphenyl}azetidin-1-yl)-N-methylpropanamide trifluoroacetate], the IC50 was < 10 nM. Take `COc1c(C(C)n2nc(C)c3c(N)ncnc32)cc(Cl)c(Cl)c1C1CN(C[C@H](C)O)C1` (stereo partly drawn) [Example 301, (2S)-1-(3-{3-[1-(4-Amino-3-methyl-1H-pyrazolo[3,4-d]pyrimidin-1-yl)ethyl]-5,6-dichloro-2-methoxyphenyl}azetidin-1-yl)propan-2-ol]: the IC50 was < 10 nM. For `CNC(=O)N1CC(c2c(C#N)c(Cl)cc(C(C)n3nc(C)c4c(N)ncnc43)c2OC)C1` (single isomer, unassigned) [Example 294, 3-{3-[1-(4-Amino-3-methyl-1H-pyrazolo[3,4-d]pyrimidin-1-yl)ethyl]-5-chloro-6-cyano-2-methoxyphenyl}-N-methylazetidine-1-carboxamide] the value was < 10 nM; for `COc1c(C(C)n2nc(C)c3c(N)ncnc32)cc(Cl)c(C)c1C1CN(C2CCOCC2)C1` (racemic) [Example 64, 1-(1-{5-chloro-2-methoxy-4-methyl-3-[1-(tetrahydro-2H-pyran-4-yl)azetidin-3-yl]phenyl}ethyl)-3-methyl-1H-pyrazolo[3,4-d]pyrimidin-4-amine], < 10 nM; for `COc1c(C(C)n2nc(C)c3c(N)ncnc32)cc(Cl)c(C#N)c1C1CN(S(=O)(=O)C(C)C)C1` (single isomer, unassigned) [Example 287, 4-[1-(4-Amino-3-methyl-1H-pyrazolo[3,4-d]pyrimidin-1-yl)ethyl]-6-chloro-2-[1-(isopropylsulfonyl)azetidin-3-yl]-3-methoxybenzonitrile], < 10 nM. For `CCOc1c(C(C)n2nc(C#C[C@H](C)O)c3c(N)ncnc32)cc(Cl)c(C)c1-c1ccc(C(=O)N(C)C)nc1` (stereo partly drawn) [Example 80, 5-[3-(1-{4-Amino-3-[(3S)-3-hydroxybut-1-yn-1-yl]-1H-pyrazolo[3,4-d]pyrimidin-1-yl}ethyl)-5-chloro-2-ethoxy-6-methylphenyl]-N,N-dimethylpyridine-2-carboxamide bis(trifluoroacetate)] the value was < 10 nM; for `CCOc1c(C(C)n2nc(C)c3c(N)ncnc32)cc(Cl)c(C#N)c1N1CC(OC)C1` (stereo not shown) [Example 319, 4-[1-(4-amino-3-methyl-1H-pyrazolo[3,4-d]pyrimidin-1-yl)ethyl]-6-chloro-3-ethoxy-2-(3-methoxyazetidin-1-yl)benzonitrile], < 10 nM. For `CCOc1c(C(C)n2nc(C)c3c(N)ncnc32)cc(Cl)c(C#N)c1-c1cncnc1` (racemic) [Example 329, 4-[1-(4-amino-3-methyl-1H-pyrazolo[3,4-d]pyrimidin-1-yl)ethyl]-6-chloro-3-ethoxy-2-pyrimidin-5-ylbenzonitrile] the value was < 10 nM. With `COc1c(C(C)n2nc(C(F)F)c3c(N)ncnc32)cc(C#N)c(C)c1C1CN(CC(F)(F)F)C1` (racemic) [Example 129, 5-{1-[4-Amino-3-(difluoromethyl)-1H-pyrazolo[3,4-d]pyrimidin-1-yl]ethyl}-4-methoxy-2-methyl-3-[1-(2,2,2-trifluoroethyl)azetidin-3-yl]benzonitrile], the IC50 was < 10 nM.

On to `CNC(=O)N1CC(c2c(C)c(Cl)cc(C(C)n3nc(C)c4c(N)ncnc43)c2OC)C1` (racemic) [Example 10, 3-{3-[1-(4-Amino-3-methyl-1H-pyrazolo[3,4-d]pyrimidin-1-yl)ethyl]-5-chloro-2-methoxy-6-methylphenyl}-N-methylazetidine-1-carboxamide], for which the IC50 is < 10 nM. The value for `COc1c(C(C)n2nc(C(F)F)c3c(N)ncnc32)cc(C#N)c(F)c1C1CN(C[C@H](C)O)C1` (stereo partly drawn) [Example 77, 5-(1-(4-Amino-3-(difluoromethyl)-1H-pyrazolo[3,4-d]pyrimidin-1-yl)ethyl)-2-fluoro-3-(1-((S)-2-hydroxypropyl)azetidin-3-yl)-4-methoxybenzonitrile] was < 10 nM. For `COc1c(C(C)n2nc(C)c3c(N)ncnc32)cc(Cl)c(C)c1-c1cnn(CCN(C)C)c1` (single isomer, unassigned) [Example 183, 1-[1-(5-Chloro-3-{1-[2-(dimethylamino)ethyl]-1H-pyrazol-4-yl}-2-methoxy-4-methylphenyl)ethyl]-3-methyl-1H-pyrazolo[3,4-d]pyrimidin-4-amine] the value was < 10 nM; for `COc1c(C(C)n2nc(C)c3c(N)ncnc32)cc(Cl)c(C)c1C1CNC(=O)O1` (stereo not shown) [Example 325, 5-{3-[1-(4-Amino-3-methyl-1H-pyrazolo[3,4-d]pyrimidin-1-yl)ethyl]-5-chloro-2-methoxy-6-methylphenyl}-1,3-oxazolidin-2-one], < 10 nM; for `CCOc1c(C(C)n2nc(C)c3c(N)ncnc32)cc(Cl)c(F)c1C1CN(CC(F)F)C1` (racemic) [Example 147, 1-(1-{5-Chloro-3-[1-(2,2-difluoroethyl)azetidin-3-yl]-2-ethoxy-4-fluorophenyl}ethyl)-3-methyl-1H-pyrazolo[3,4-d]pyrimidin-4-amine], < 10 nM. For `COc1c(C(C)n2nc(C)c3c(N)ncnc32)cc(Cl)c(C#N)c1C1CN(C2COC2)C1` (single isomer, unassigned) [Example 274, 4-[1-(4-Amino-3-methyl-1H-pyrazolo[3,4-d]pyrimidin-1-yl)ethyl]-6-chloro-3-methoxy-2-(1-oxetan-3-ylazetidin-3-yl)benzonitrile] the value was < 10 nM. On to `CCOc1c(C(C)n2cc(C)c3c(N)ncnc32)cc(Cl)c(C#N)c1C1CN(C[C@H](C)O)C1` (stereo partly drawn) [Example 309, 4-[1-(4-Amino-5-methyl-7H-pyrrolo[2,3-d]pyrimidin-7-yl)ethyl]-6-chloro-3-ethoxy-2-{1-[(2S)-2-hydroxypropyl]azetidin-3-yl}benzonitrile], for which the IC50 was < 10 nM. The value for `CCOc1c(C(C)n2nc(C)c3c(N)ncnc32)cc(Cl)c(C)c1-c1ccnc(C(=O)N(C)C)c1` (single isomer, unassigned) [Example 201] was < 10 nM; that for `COCCN1CC(c2c(C)c(Cl)cc(C(C)n3nc(C)c4c(N)ncnc43)c2OC)C1` (racemic) [Example 9, 1-(1-{5-Chloro-2-methoxy-3-[1-(2-methoxyethyl)azetidin-3-yl]-4-methylphenyl}ethyl)-3-methyl-1H-pyrazolo[3,4-d]pyrimidin-4-amine] was < 10 nM; that for `COc1c(C(C)n2nc(C)c3c(N)ncnc32)cc(Cl)c(C)c1-c1ccc(C(=O)NCCO)nc1` (stereo not shown) [Example 23, 5-(3-(1-(4-amino-3-methyl-1H-pyrazolo[3,4-d]pyrimidin-1-yl)ethyl)-5-chloro-2-methoxy-6-methylphenyl)-N-(2-hydroxyethyl)picolinamide trifluoroacetate] was < 10 nM. For `CCOc1c(C(C)n2nc(CC#N)c3c(N)ncnc32)cc(Cl)c(C)c1-c1ccc(C(=O)N(C)C)nc1` (racemic) [Example 165, 5-(3-{1-[4-Amino-3-(cyanomethyl)-1H-pyrazolo[3,4-d]pyrimidin-1-yl]ethyl}-5-chloro-2-ethoxy-6-methylphenyl)-N,N-dimethylpyridine-2-carboxamide] the value was < 10 nM; for `COc1c(C(C)n2nc(C(F)F)c3c(N)ncnc32)cc(C#N)c(C)c1C1CN(CCO)C1` (racemic) [Example 130, 5-{1-[4-Amino-3-(difluoromethyl)-1H-pyrazolo[3,4-d]pyrimidin-1-yl]ethyl}-3-[1-(2-hydroxyethyl)azetidin-3-yl]-4-methoxy-2-methylbenzonitrile], < 10 nM. As to `COc1c(C(C)n2nc(C)c3c(N)ncnc32)cc(Cl)c(C)c1C1CN(C2CCOC2)C1` (stereo not shown) [Example 107, 1-(1-{5-Chloro-2-methoxy-4-methyl-3-[1-(tetrahydrofuran-3-yl)azetidin-3-yl]phenyl}ethyl)-3-methyl-1H-pyrazolo[3,4-d]pyrimidin-4-amine], the IC50 was < 10 nM. The value for `COc1c(C(C)n2cc(C)c(=O)c3c(N)ncnc32)cc(Cl)c(C)c1-c1ccc(C(=O)N(C)C)nc1` (stereo not shown) [Example 360, 5-{3-[1-(4-Amino-6-methyl-5-oxopyrido[2,3-d]pyrimidin-8(5H)-yl)ethyl]-5-chloro-2-methoxy-6-methylphenyl}-N,N-dimethylpyridine-2-carboxamide bis(trifluoroacetate)] was < 10 nM. The value for `COc1c(C(C)n2nc(C(F)F)c3c(N)ncnc32)cc(C#N)c(C)c1C1CN(CC(F)F)C1` (racemic) [Example 136, 5-{1-[4-Amino-3-(difluoromethyl)-1H-pyrazolo[3,4-d]pyrimidin-1-yl]ethyl}-3-[1-(2,2-difluoroethyl)azetidin-3-yl]-4-methoxy-2-methylbenzonitrile] was < 10 nM. The value for `COc1c(C(C)n2nc(C)c3c(N)ncnc32)cc(Cl)c(C#N)c1C1CN(C2CCOC2)C1` (single isomer, unassigned) [Example 276, 4-[1-(4-Amino-3-methyl-1H-pyrazolo[3,4-d]pyrimidin-1-yl)ethyl]-6-chloro-3-methoxy-2-[1-(tetrahydrofuran-3-yl)azetidin-3-yl]benzonitrile] was < 10 nM.
